Measurements: patent US12180226B2, “Spirotricycle RIPK1 inhibitors and methods of uses thereof” (Merck Sharp & Dohme LLC, priority 2021, dated 2024)
Counter-ions that a name gives are not always drawn.

molecular target: RIPK1 (recombinant GST-RIPK1 kinase domain, residues 1-327) (Homo sapiens (Human), UniProt Q13546); test: RIPK1-ADP-Glo Enzymatic Assay; assay type: biochemical; settings: ADP-Glo; 25 nM GST-RIPK1, 300 μM ATP; assay lower limit ~25 nM; read-out: RIPK1 V0 Ec50
Procedure, shortened: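 Luminescent ADP-Glo readout of ATP-to-ADP conversion. Conditions: 25 nM enzyme, 300 μM ATP, 3 μM dephospho-MBP, pH 7.3 HEPES buffer with 20 mM MgCl2; 30 min compound pre-incubation, 150 min reaction. EC50 via four-parameter sigmoidal regression; assay floor ~25 nM.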

Sequence of RIPK1 (recombinant GST-RIPK1 kinase domain, residues 1-327) (Q13546 1-327): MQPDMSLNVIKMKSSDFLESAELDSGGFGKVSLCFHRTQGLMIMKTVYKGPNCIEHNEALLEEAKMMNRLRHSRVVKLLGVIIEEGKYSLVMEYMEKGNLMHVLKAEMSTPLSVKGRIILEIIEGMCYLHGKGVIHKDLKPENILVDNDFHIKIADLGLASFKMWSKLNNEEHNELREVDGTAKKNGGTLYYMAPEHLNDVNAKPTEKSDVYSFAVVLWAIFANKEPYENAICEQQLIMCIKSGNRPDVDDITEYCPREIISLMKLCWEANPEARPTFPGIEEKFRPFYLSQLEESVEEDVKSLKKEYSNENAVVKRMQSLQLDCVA

EC50	SMILES
< 25 nM	CC1CN(c2ccnc3ccnn23)CCC12O[C@@H]1CC[C@@H](c3ccccc3)N1C2=O (stereo partly drawn) [Example 4.235, (4R,5′S,7a′R)-3-methyl-5′-phenyl-1-(pyrazolo[1,5-a]pyrimidin-7-yl)tetrahydro-3′H-spiro[piperidine-4,2′-pyrrolo[2,1-b] [1,3]oxazol]-3′-one]
256 nM	O=C(C1CC1)N1CCC2(CC1)O[C@@H]1CC[C@@H](c3cc(F)cc(F)c3)N1C2=O [Example 1.8, (5′S,7a′R)-1-(cyclopropanecarbonyl)-5′-(3,5-difluorophenyl)tetrahydro-3′H-spiro[piperidine-4,2′-pyrrolo[2,1-b] [1,3]oxazol]-3′-one]
< 25 nM	O=C(c1nc(Br)ccc1F)N1CCC2(CC1)O[C@@H]1CC[C@@H](c3cc(F)cc(F)c3)N1C2=O [Example 6.82]
< 25 nM	O=C1N2[C@@H](CC[C@H]2c2ccccc2)OC12CN(c1ccc(C3CCC3)c3ccnn13)C2 [Example 18.3, (5′S,7a′R)-1-(4-cyclobutylpyrazolo[1,5-a]pyridin-7-yl)-5′-phenyltetrahydro-3′H-spiro[azetidine-3,2′-pyrrolo[2,1-b][1,3]oxazol]-3′-one]
69.2 nM	Cc1ccccc1C(=O)N1CCC2(CC1)O[C@@H]1CC[C@@H](c3cc(F)cc(F)c3)N1C2=O [Example 6.11, (5′S,7a′R)-5′-(3,5-difluorophenyl)-1-(2-methybenzene-1-carbonyl)tetrahydro-3′H-spiro[piperidine-4,2′-pyrrolo[2,1-b] [1,3]oxazol]-3′-one]
47.5 nM	N#Cc1cccc(C(=O)N2CCC3(CC2)O[C@@H]2CC[C@@H](c4cccc(F)c4)N2C3=O)c1F [Example 6.122, 2-fluoro-3-[(5′S,7a′R)-5′-(3-fluorophenyl)-3′-oxotetrahydro-1H,3′H-spiro[piperi-dine-4,2′-pyrrolo[2,1-b][1,3]oxazole]-1-carbonyl]benzonitrile]
< 25 nM	O=C1N2[C@@H](CC[C@H]2c2ccccc2)OC12CCN(c1ccc(Br)n3ncnc13)CC2 [Example 4.216, (5′S,7a′R)-1-(5-bromo [1,2,4]triazolo[1,5-a]pyridin-8-yl)-5′-phenyltetrahydro-3′H-spiro[piperidine-4,2′-pyrrolo[2,1-b] [1,3]oxazol]-3′-one]
< 25 nM	O=C(c1cc(F)ccc1F)N1CCC2(O[C@@H]3CC[C@@H](c4ccccc4)N3C2=O)C(F)C1 (some centres unmarked) [Example 6.112]
295 nM	O=C1N2[C@H](CC13CCN(c1cc(F)ccn1)CC3)OC[C@H]2c1ccccc1 [Example 11.2, (3′R,7a′S)-1-(4-fluoropyridin-2-yl)-3′-phenyltetrahydro-5′H-spiro[piperidine-4,6′-pyrrolo[2,1-b][1,3]oxazol]-5′-one]
< 25 nM	O=C(c1ccc(F)cc1F)N1CCC2(CC1)O[C@@H]1CC[C@@H](c3cc(F)cc(F)c3)N1C2=O [Example 5.5, (5′S,7a′R)-1-(2,4-difluoro-benzene-1-carbonyl)5′-(3,5-difluorophenyl)tetra-hydro-3′H-spiro[piperi-dine-4,2′-pyrrolo[2,1-b] [1,3]oxazol]-3′-one]
< 25 nM	CC(=O)c1ccc(N2CCC3(CC2)O[C@@H]2CC[C@@H](c4ccccc4)N2C3=O)n2ncnc12 [Example 4.270, (5′S,7a′R)-1-(8-acetyl[1,2,4]triazolo[1,5-a]pyridin-5-yl)-5′-phenyltetrahydro-3′H-spiro[piperidine-4,2′-pyrrolo[2,1-b] [1,3]oxazol]-3′-one]
81.7 nM	O=C1N2[C@@H](CC[C@H]2c2ccccc2)OC12CCN(c1ccnc(C3CC3)n1)CC2 [Example 11.15, (5′S,7a′R)-1-(2-cyclopropylpyrimidin-4-yl)-5′-phenyltetrahydro-3′H-spiro[piperidine-4,2′-pyrrolo[2,1-b][1,3]oxazol]-3′-one]
106 nM	Cc1ncc([C@@H]2CC[C@H]3OC4(CCN(C(=O)c5ccccc5)CC4F)C(=O)N32)cc1F (stereo partly drawn) [Example 2.9, (5′S,7a′R)-1-(benzenecarbonyl)-3-fluoro-5′-(5-fluoro-6-methylpyridin-3-yl)tetrahydro-3′H-spiro[piperidine-4,2′-pyrrolo[2,1-b][1,3]oxazol]-3′-one]
< 25 nM	O=C(c1ccc(F)cc1)N1CCC2(CC1)O[C@@H]1CC[C@@H](c3cc(F)cc(F)c3)N1C2=O [Example 6.70, (5′S,7a′R)-5′-(3,5-difluorophenyl)-1-(4-fluorobenzene-1-carbonyl)tetrahydro-3′H-spiro[piperidine-4,2′-pyrrolo[2,1-b] [1,3]oxazol]-3′-one]
< 25 nM	O=C1N2C(CCC2c2cc(F)cc(F)c2)OC12CCN(c1cc(F)ccn1)CC2 (centres unmarked) [Example 4.3, 5′-(3,5-difluorophenyl)-1-(4-fluoropyridin-2-yl)tetrahydro-3′H-spiro[piperidine-4,2′-pyrrolo[2,1-b] [1,3]oxazol]-3′-one]
< 25 nM	N#Cc1ccc(F)c(C(=O)N2CCC3(CC2)O[C@@H]2CC[C@@H](c4ccccc4)N2C3=O)c1 [Example 6.148]
< 25 nM	O=C1N2[C@@H](CC[C@H]2c2ccccc2)OC12CCN(c1ncc(-c3ncco3)c(C(F)(F)F)n1)CC2 [Example 21.2, (5′S,7a′R)-1-[5-(1,3-oxazol-2-yl)-4-(trifluoromethyl)pyrimidin-2-yl]-5′-phenyltetrahydro-3′H-spiro[piperidine-4,2′-pyrrolo[2,1-b][1,3]oxazol]-3′-one]
738 nM	O=C(c1cnn2c1CSCC2)N1CCC2(CC1)O[C@@H]1CC[C@@H](c3cc(F)cc(F)c3)N1C2=O [Example 6.39, (5′S,7a′R)-5′-(3,5-difluorophenyl)-1-(6,7-dihydro-4H-pyrazolo-[5,1-c][1,4]thiazine-3-carbonyl)tetrahydro-3′H-spiro[piperidine-4,2′-pyrrolo[2,1-b] [1,3]oxazol]-3′-one]
46.8 nM	Cc1ccc(C(=O)N2CCC3(CC2)O[C@@H]2CC[C@@H](c4cc(F)cc(F)c4)N2C3=O)cn1 [Example 6.69, (5′S,7a′R)-5′-(3,5-difluorophenyl)-1-(6-methylpyridine-3-carbonyl)tetrahydro-3′H-spiro[piperidine-4,2′-pyrrolo[2,1-b] [1,3]oxazol]-3′-one]
26.8 nM	O=C1N2[C@@H](CC[C@H]2c2ccccc2)OC12CCN(c1cccc3ncnn13)CC2 [Example 13.1, (5′S,7a′R)-1-([1,2,4]Triazolo[1,5-a]pyridin-5-yl)-5′-phenyltetrahydro-3′H-spiro[piperidine-4,2′-pyrrolo[2,1-b]oxazol]-3′-one, TFA]
< 25 nM	CC1CN(c2cccc3ncnn23)CCC12O[C@@H]1CC[C@@H](c3cc(F)cc(F)c3)N1C2=O (stereo partly drawn) [Example 4.266, (5′S,7a′R)-5′-(3,5-difluorophenyl)-3-methyl-1-([1,2,4]triazolo[1,5-a]pyridin-5-yl)tetrahydro-3′H-spiro[piperidine-4,2′-pyrrolo[2,1-b] [1,3]oxazol]-3′-one]
208 nM	O=C1CCc2c1cccc2C(=O)N1CCC2(CC1)O[C@@H]1CC[C@@H](c3cc(F)cc(F)c3)N1C2=O [Example 5.28, (5′S,7a′R)-5′-(3,5-difluoro-phenyl)-1-(1-oxo-2,3-dihydro-1H-indene-4-carbonyl)tetrahydro-3′H-spiro[piperidine-4,2′-pyrrolo[2,1-b]oxazol]-3′-one]
< 25 nM	CC1CN(c2ccnc3ccnn23)CCC12O[C@@H]1CC[C@@H](c3ccccc3)N1C2=O (stereo partly drawn) [Example 4.238, (4R,5′S,7a′R)-3-methyl-5′-phenyl-1-(pyrazolo[1,5-a]pyrimidin-7-yl)tetrahydro-3′H-spiro[piperidine-4,2′-pyrrolo[2,1-b] [1,3]oxazol]-3′-one]
< 25 nM	CC1CC2(CCN1c1ncnc3ccnn13)O[C@@H]1CC[C@@H](c3cc(F)cc(F)c3)N1C2=O (stereo partly drawn) [Example 4.213, (5′S,7a′R)-5′-(3,5-difluorophenyl)-2-methyl-1-(pyrazolo[1,5-a] [1,3,5]triazin-4-yl)tetrahydro-3′H-spiro[piperidine-4,2′-pyrrolo[2,1-b] [1,3]oxazol]-3′-one]
< 25 nM	Cc1nccn1-c1cc(N2CCC3(CC2)O[C@@H]2CC[C@@H](c4ccccc4)N2C3=O)ncn1 [Example 4.175, (5′S,7a′R)-1-[6-(2-methyl-1H-imidazol-1-yl)pyrimidin-4-yl]-5′-phenyltetrahydro-3′H-spiro[piperidine-4,2′-pyrrolo[2,1-b] [1,3]oxazol]-3′-one]
50 nM	O=C1N2[C@@H](CC[C@H]2c2ccccc2)OC12CCN(c1cc(C(F)(F)F)ncn1)CC2 [Example 4.33, (5′S,7a′R)-5′-phenyl-1-[6-(trifluoromethyl)pyrimidin-4-yl]tetrahydro-3′H-spiro[piperidine-4,2′-pyrrolo[2,1-b] [1,3]oxazol]-3′-one]
< 25 nM	O=C(c1c(F)cc(F)cc1F)N1CCC2(CC1)O[C@@H]1CC[C@@H](c3ccccc3)N1C2=O [Example 5.8, (5′S,7a′R)-5′-phenyl-1-(2,4,6-trifluorobenzene-1-carbonyl)tetrahydro-3′H-spiro[piperidine-4,2′-pyrrolo[2,1-b][1,3]oxazol]-3′-one]
< 25 nM	O=C1N2[C@@H](CC[C@H]2c2ccccc2)OC12CCN(c1ncc(-c3ncco3)c(C(F)F)n1)CC2 [Example 21.3, (5′S,7a′R)-1-[4-(difluoromethyl)-5-(1,3-oxazol-2-yl)pyrimidin-2-yl]-5′-phenyltetrahydro-3′H-spiro[piperidine-4,2′-pyrrolo[2,1-b][1,3]oxazol]-3′-one]

same assay, conditions: RIPK1 V0 Ec50, ADP-Glo; 25 nM GST-RIPK1, 300 μM ATP; assay lower limit ~25 nM

SMILES	EC50
N#Cc1ccc(N2CCC3(CC2)O[C@@H]2CC[C@@H](c4cc(F)cc(F)c4)N2C3=O)cc1Cl [Example 4.20, 2-chloro-4-[(5′S,7a′R)-5′-(3,5-difluorophenyl)-3′-oxotetrahydro-1H,3′H-spiro[piperidine-4,2′-pyrrolo[2,1-b] [1,3]oxazol]-1-yl]benzonitrile]	< 25 nM
